pIC50: −log10 of the molar value.
Legend:
[1] = system: human breast cancer cells MDA-MB-468; test: Cell proliferation, CellTiter Glo, 96 h, MDA-MB-468; type: cell-based; details: MDA-MB-468, 96 h
[2] = system: Trop2 positive cancer cells BxPC-3; test: Cytotoxicity assay, CellTiter-Glo, 168 h, BxPC-3; type: cell-based, human
Method: In brief, 3000 to 5000 cells were plated in 96-well plates, and cells were able to attach overnight. Cells were treated with indicated drugs with various concentrations for 168 h. Cell viabilities were examined by CellTiter-Glo® Luminescent Cell Viability Assay, and percentage of cell viability was calculated.

## DS1062a
[1]
  inhibition of proliferation (in words): could inhibit the proliferation of MDA-MB-468 cells
[1]; Table 9
  pIC50: 8.60
[2]
  IC50: 0.692 nM

— patent US20260250412A1, “COMBINATION OF ANTIBODY-DRUG CONJUGATE AND ANTI-PD-1 ANTIBODY, AND USE THEREOF” (GENEQUANTUM HEALTHCARE (SUZHOU) CO., LTD., priority 2023, published 2026)
